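The concentration for 50% growth inhibition is given as GI50. TGI is the concentration that stops growth completely.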
What was measured:
Test in all cases: NCI anticancer screen, dose series, 384-well format
786-0 renal = test system: 786-0 renal
A498 renal = test system: A498 renal
A549 NSCLC = test system: A549 NSCLC
ACHN renal = test system: ACHN renal
BT-549 breast = test system: BT-549 breast
CAKI-1 renal = test system: CAKI-1 renal
CCRF-CEM leukemia = test system: CCRF-CEM leukemia
COLO 205 colon = test system: COLO 205 colon
DU-145 prostate = test system: DU-145 prostate
EKVX NSCLC = test system: EKVX NSCLC
HCC-2998 colon = test system: HCC-2998 colon
HCT-116 colon = test system: HCT-116 colon
HCT-15 colon = test system: HCT-15 colon
HL-60(TB) leukemia = test system: HL-60(TB) leukemia
HOP-62 NSCLC = test system: HOP-62 NSCLC
HOP-92 NSCLC = test system: HOP-92 NSCLC
HS 578T breast = test system: HS 578T breast
HT29 colon = test system: HT29 colon
IGROV1 ovarian = test system: IGROV1 ovarian
K-562 leukemia = test system: K-562 leukemia
KM12 colon = test system: KM12 colon
LOX IMVI melanoma = test system: LOX IMVI melanoma
M14 melanoma = test system: M14 melanoma
MALME-3M melanoma = test system: MALME-3M melanoma
MCF7 breast = test system: MCF7 breast
MDA-MB-435 melanoma = test system: MDA-MB-435 melanoma
MDA-MB-468 breast = test system: MDA-MB-468 breast
MOLT-4 leukemia = test system: MOLT-4 leukemia
NCI-H226 lung = test system: NCI-H226 lung
NCI-H23 lung = test system: NCI-H23 lung
NCI-H322M lung = test system: NCI-H322M lung
NCI-H460 NSCLC = test system: NCI-H460 NSCLC
NCI-H522 lung = test system: NCI-H522 lung
NCI/ADR-RES ovarian = test system: NCI/ADR-RES ovarian
OVCAR-3 ovarian = test system: OVCAR-3 ovarian
OVCAR-4 ovarian = test system: OVCAR-4 ovarian
OVCAR-8 ovarian = test system: OVCAR-8 ovarian
PC-3 prostate = test system: PC-3 prostate
RPMI-8226 leukemia = test system: RPMI-8226 leukemia
RXF 393 renal = test system: RXF 393 renal
SF-268 CNS = test system: SF-268 CNS
SF-295 CNS = test system: SF-295 CNS
SF-539 CNS = test system: SF-539 CNS
SK-MEL-2 melanoma = test system: SK-MEL-2 melanoma
SK-MEL-28 melanoma = test system: SK-MEL-28 melanoma
SK-MEL-5 melanoma = test system: SK-MEL-5 melanoma
SK-OV-3 ovarian = test system: SK-OV-3 ovarian
SN12C renal = test system: SN12C renal
SNB-19 CNS = test system: SNB-19 CNS
SNB-75 CNS = test system: SNB-75 CNS
SW-620 colon = test system: SW-620 colon
TK-10 renal = test system: TK-10 renal
U251 glioblastoma = test system: U251 glioblastoma
UACC-257 melanoma = test system: UACC-257 melanoma
UACC-62 melanoma = test system: UACC-62 melanoma

Structure (SMILES): C=C(c1ccc(N(C)C)cc1)c1ccc(N(C)C)cc1
- GI50 ([…]-0 renal): 2.51 µM
- TGI (786-0 renal): 8.96 µM
- GI50 (A498 renal): 2.1 µM
- TGI (A498 renal): 7.73 µM
- GI50 (A549 NSCLC): 4.11 µM
- TGI (A549 NSCLC): 28.9 µM
- GI50 (ACHN renal): 4.16 µM
- TGI (ACHN renal): > 100 µM
- GI50 (BT-549 breast): 1.49 µM
- TGI (BT-549 breast): 4.15 µM
- GI50 (CAKI-1 renal): 2.57 µM
- TGI (CAKI-1 renal): 22.1 µM
- GI50 (CCRF-CEM leukemia): 1.35 µM
- TGI (CCRF-CEM leukemia): 2.68 µM
- GI50 (COLO 205 colon): 2.78 µM
- TGI (COLO 205 colon): 7.77 µM
- GI50 (DU-145 prostate): 2.66 µM
- TGI (DU-145 prostate): 8.38 µM
- GI50 (EKVX NSCLC): 3.38 µM
- TGI (EKVX NSCLC): 15.3 µM
- GI50 (HCC-2998 colon): 1.12 µM
- TGI (HCC-2998 colon): 4.84 µM
- GI50 (HCT-116 colon): 2.45 µM
- TGI (HCT-116 colon): 13.1 µM
- GI50 (HCT-15 colon): 0.373 µM
- TGI (HCT-15 colon): 10.3 µM
- GI50 (HL-60(TB) leukemia): 0.382 µM
- TGI (HL-60(TB) leukemia): 1.87 µM
- GI50 (HOP-62 NSCLC): 2.2 µM
- TGI (HOP-62 NSCLC): 7.98 µM
- GI50 (HOP-92 NSCLC): 2.45 µM
- TGI (HOP-92 NSCLC): 8.34 µM
- GI50 (HS 578T breast): 1.69 µM
- TGI (HS 578T breast): 3.53 µM
- GI50 (HT29 colon): 1.87 µM
- TGI (HT29 colon): 4.79 µM
- GI50 (IGROV1 ovarian): 2.36 µM
- TGI (IGROV1 ovarian): 9.03 µM
- GI50 (K-562 leukemia): 1.91 µM
- TGI (K-562 leukemia): 5.35 µM
- GI50 (KM12 colon): 1.94 µM
- TGI (KM12 colon): 55.4 µM
- GI50 (LOX IMVI melanoma): 1.91 µM
- TGI (LOX IMVI melanoma): 21.1 µM
- GI50 (M14 melanoma): 1.39 µM
- TGI (M14 melanoma): 3.16 µM
- GI50 (MALME-3M melanoma): 1.65 µM
- TGI (MALME-3M melanoma): 6.03 µM
- GI50 (MCF7 breast): 2.16 µM
- TGI (MCF7 breast): 8.52 µM
- GI50 (MDA-MB-435 melanoma): 0.28 µM
- TGI (MDA-MB-435 melanoma): 1.06 µM
- GI50 (MDA-MB-468 breast): 0.142 µM
- TGI (MDA-MB-468 breast): 0.822 µM
- GI50 (MOLT-4 leukemia): 0.301 µM
- TGI (MOLT-4 leukemia): 1.22 µM
- GI50 (NCI-H226 lung): 4.29 µM
- TGI (NCI-H226 lung): 26.7 µM
- GI50 (NCI-H23 lung): 1.75 µM
- TGI (NCI-H23 lung): 4.13 µM
- GI50 (NCI-H322M lung): 5.48 µM
- TGI (NCI-H322M lung): 29.1 µM
- GI50 (NCI-H460 NSCLC): 2.28 µM
- TGI (NCI-H460 NSCLC): 5.15 µM
- GI50 (NCI-H522 lung): 0.628 µM
- TGI (NCI-H522 lung): 2.17 µM
- GI50 (NCI/ADR-RES ovarian): 1.43 µM
- TGI (NCI/ADR-RES ovarian): 3.12 µM
- GI50 (OVCAR-3 ovarian): 1.41 µM
- TGI (OVCAR-3 ovarian): 3.1 µM
- GI50 (OVCAR-4 ovarian): 2.09 µM
- TGI (OVCAR-4 ovarian): 9.56 µM
- GI50 (OVCAR-8 ovarian): 2.39 µM
- TGI (OVCAR-8 ovarian): 5.17 µM
- GI50 (PC-3 prostate): 3.1 µM
- TGI (PC-3 prostate): 16.1 µM
- GI50 (RPMI-8226 leukemia): 1.51 µM
- TGI (RPMI-8226 leukemia): 2.89 µM
- GI50 (RXF 393 renal): 1.33 µM
- TGI (RXF 393 renal): 3.48 µM
- GI50 (SF-268 CNS): 3.27 µM
- TGI (SF-268 CNS): 15 µM
- GI50 (SF-295 CNS): 2.17 µM
- TGI (SF-295 CNS): 5.44 µM
- GI50 (SF-539 CNS): 1.79 µM
- TGI (SF-539 CNS): 4.12 µM
- GI50 (SK-MEL-2 melanoma): 0.48 µM
- TGI (SK-MEL-2 melanoma): 1.9 µM
- GI50 (SK-MEL-28 melanoma): 2.59 µM
- TGI (SK-MEL-28 melanoma): 7.79 µM
- GI50 (SK-MEL-5 melanoma): 1.36 µM
- TGI (SK-MEL-5 melanoma): 3.4 µM
- GI50 (SK-OV-3 ovarian): 2.42 µM
- TGI (SK-OV-3 ovarian): 15.1 µM
- GI50 (SN12C renal): 3.69 µM
- TGI (SN12C renal): 72.6 µM
- GI50 (SNB-19 CNS): 2.92 µM
- TGI (SNB-19 CNS): 20.5 µM
- GI50 (SNB-75 CNS): 1.25 µM
- TGI (SNB-75 CNS): 5.15 µM
- GI50 (SW-620 colon): 1.15 µM
- TGI (SW-620 colon): 4.26 µM
- GI50 (TK-10 renal): 2.25 µM
- TGI (TK-10 renal): 9.09 µM
- GI50 (U251 glioblastoma): 3.48 µM
- TGI (U251 glioblastoma): 14.4 µM
- GI50 (UACC-257 melanoma): 3.31 µM
- TGI (UACC-257 melanoma): 19.7 µM
- GI50 (UACC-62 melanoma): 1.52 µM
- TGI (UACC-62 melanoma): 7.92 µM

Source: PubChem BioAssay (NCI)
